Laboratory results published in patent US11865157B2, “Compositions and methods of targeting cancer stem cells” (University of Houston System, priority 2016, dated 2024).
Numbered stars: 1 amine (or outer) side, 2 acyl side, 3 side chain; on linkers, the order of the positions; unused ones are H or OH. Square brackets hold non-standard residues; d marks the D form. Peptide text beside a SMILES is read from it. ξ: configuration not given here. Gly(N-piperonyl) = O=C(O)CNCc1ccc2c(c1)OCO2; X1 = CC(c1ccccc1)N(CC(=O)[*:2])[*:1]; Nlys = NCCCCNCC(=O)O; ξK = NCCCCC(N)C(=O)O; ξM = CSCCC(N)C(=O)O; Nme = COCCNCC(=O)O

Legend:
H358 cells [1] = test: Magnetic-bead pull-down assay; assay type: cell-based
Protocol: On-bead binding assay: 50 mg of peptoid-carrying tentagel beads or 1.3×10^6 of peptoid-carrying magnetic beads were equilibrated in 2 mL RPMI containing 5% FBS and 3% BSA (Sigma) for 1 hour by shaking. The beads can then be equilibrated with 5×10^6 of each cancer cell type listed above in 2 mL RPMI containing 5% FBS and 1% BSA at room temperature for 15-60 minutes for binding. The cell-bound beads are then pulled down with a magnet and washed with RPMI to cleanly harvest bound cells. Unbound cells were collected separately for further confirmations.
To confirm the binding specificity of PCS2 to CSCs, CSCs isolated from H358 cells and normal mesenchymal stem cells (MSCs) were exposed to PCS2-carrying beads as described in Example 3, and then separated by magnet into peptoid-bound and peptoid-unbound fractions (FIG. 19A). […] RNA from both bound and unbound fractions was harvested and analyzed by RT-qPCR to determine the relative expression of several known CSC biomarkers in each fraction was assessed, including expression of ALDH1A3 (FIG. 19B), CD133 (FIG. 19C), CD44 (FIG. 19D), and SOX2 (FIG. 19E). […]
To further evaluate this plectin-CSC connection, it was confirmed that CSCs can be isolated through cell surface plectin via a PCS2-independent approach. […] Next the mRNA levels of two known CSC biomarkers was analyzed on these cell groups by RT-QPCR, along with plectin (PLEC). […]

plectin = target: T1, plectin (Homo sapiens, UniProt Q15149); test: Magnetic-bead binding assay with plectin antibody competition or plectin siRNA knockdown
T1 construct: endogenous in cells; host or cells: H358, H1693, H1975, H1993 cells
Protocol: Unsorted H358 cells were plated on a 6-well plate and grown to 80% confluence. For each well, 9 μL of Lipofectamine RNAiMAX (Thermo Fisher) was mixed with 3 μL of 10 μM siRNA, either silencer select s10644 plectin or silencer select negative control 1 (Thermo Fisher), in serum-free RPMI and incubated for 5 minutes. The mixture was then added to the well and incubated for 1 to 4 days before testing. Magnetic binding assays were performed on harvested cells as described above for binding evaluation.
(§1) Plectin expression was directed tested on PCS2-bound cells from H358, HCC4017, H460, H1299, H2073, H1693, H1993, H1975 cells by RT-QPCR (FIG. 22A). […] To determine if PCS2 and the plectin antibody compete for binding, the magnetic-bead binding assay was repeated in the presence of the plectin antibody. […] Since previous reports have shown cells to be sufficiently stable for further assays with plectin knock-down, plectin knockdown was conducted in H358, H1693, H1975 and H1993 cells using siRNA using the magnetic-bead binding assay described above. […] From these observations, it was concluded that plectin is the cell-surface marker that PCS2 is targeting.

H358 cells [2] = test: Clonogenicity assay under treatment; assay type: cell-based; settings: 500 cells/well, 30 and 100 μM, 2 weeks
Protocol: To further validate that PCS2D1 inhibiting CSCs, the effects of PCS2D1 against a stem-cell-associated phenotype were studied with regards to the capacity to form colonies from a single cell by using the clonogenicity assay. About 300 cells were plated onto 35 mm cell culture plates with either 0, 1, 10, 30, or 100 μM of PCS2D1, and allowed to grow for 2 weeks. After staining with crystal violet, both the number of colonies and the overall morphology of the colonies were evaluated.
The clonogenicity assay was repeated with H358 cells, 500 cells/well, using 0, 10, 30 and 100 μM PCS2 treatment over 2 weeks. […] To confirm that this was due to the specific targeting on CSCs, the clonogenicity assay was performed again over 8 days, with the treatment performed from day 7 to 8 instead, to allow the colonies to establish. This was done alongside control cells plated on chamber slides and then grown under the same conditions.

[3] = tested on: lung cancer cell lines (HCC4017, H358, H366, H460, H1299, H2073, H1693, H1993, H1975); test: RT-qPCR of CSC markers and PLEC in PCS2-bead bound vs unbound fractions of lung cancer cell lines; assay type: cell-based
Protocol: Using the same basic approach, peptoid-bound and peptoid-unbound fractions were generated from the lung cancer cells lines HCC4017, H358, H366, H460 for the PCS2 compound, and the relative expression of CSC marker SOX2 was evaluated between each fraction.
To confirm the binding specificity of PCS2 to CSCs, CSCs isolated from H358 cells and normal mesenchymal stem cells (MSCs) were exposed to PCS2-carrying beads as described in Example 3, and then separated by magnet into peptoid-bound and peptoid-unbound fractions (FIG. 19A). […] To further evaluate PCS2 specificity towards CSCs, HCC4017, H460, H1299, H2073, H1693, H1993, and H1975 cells were exposed to PCS2-carrying beads, and then separated by magnet into peptoid-bound and peptoid-unbound fractions. RNA from both bound and unbound fractions was harvested and analyzed by RT-qPCR to determine the relative expression of several known CSC biomarkers in each fraction was assessed, including expression of ALDH1A3 (FIG. 19B), CD133 (FIG. 19C), CD44 (FIG. 19D), and SOX2 (FIG. 19E). CD44 and SOX2 expressions were high on PCS2-coated magnetic-bead bound fractions from the almost all cell lines having higher expression of CSC biomarkers compared to the unsorted or unbound fractions confirming that the capacity of PCS2 to bind to CSCs is not exclusive to H358 cells. The correlation to ALDH1A3 and CD133 were varied, which is typical due to the high heterogeneity of CSC biomarker expressions, and there are no 100% biomarker correlations exists.
as §1

[4] = HCC4017, H460, H1299, H2073, H1693, H1993, H1975, almost all cell lines

T1 sequence (Q15149 whole entry): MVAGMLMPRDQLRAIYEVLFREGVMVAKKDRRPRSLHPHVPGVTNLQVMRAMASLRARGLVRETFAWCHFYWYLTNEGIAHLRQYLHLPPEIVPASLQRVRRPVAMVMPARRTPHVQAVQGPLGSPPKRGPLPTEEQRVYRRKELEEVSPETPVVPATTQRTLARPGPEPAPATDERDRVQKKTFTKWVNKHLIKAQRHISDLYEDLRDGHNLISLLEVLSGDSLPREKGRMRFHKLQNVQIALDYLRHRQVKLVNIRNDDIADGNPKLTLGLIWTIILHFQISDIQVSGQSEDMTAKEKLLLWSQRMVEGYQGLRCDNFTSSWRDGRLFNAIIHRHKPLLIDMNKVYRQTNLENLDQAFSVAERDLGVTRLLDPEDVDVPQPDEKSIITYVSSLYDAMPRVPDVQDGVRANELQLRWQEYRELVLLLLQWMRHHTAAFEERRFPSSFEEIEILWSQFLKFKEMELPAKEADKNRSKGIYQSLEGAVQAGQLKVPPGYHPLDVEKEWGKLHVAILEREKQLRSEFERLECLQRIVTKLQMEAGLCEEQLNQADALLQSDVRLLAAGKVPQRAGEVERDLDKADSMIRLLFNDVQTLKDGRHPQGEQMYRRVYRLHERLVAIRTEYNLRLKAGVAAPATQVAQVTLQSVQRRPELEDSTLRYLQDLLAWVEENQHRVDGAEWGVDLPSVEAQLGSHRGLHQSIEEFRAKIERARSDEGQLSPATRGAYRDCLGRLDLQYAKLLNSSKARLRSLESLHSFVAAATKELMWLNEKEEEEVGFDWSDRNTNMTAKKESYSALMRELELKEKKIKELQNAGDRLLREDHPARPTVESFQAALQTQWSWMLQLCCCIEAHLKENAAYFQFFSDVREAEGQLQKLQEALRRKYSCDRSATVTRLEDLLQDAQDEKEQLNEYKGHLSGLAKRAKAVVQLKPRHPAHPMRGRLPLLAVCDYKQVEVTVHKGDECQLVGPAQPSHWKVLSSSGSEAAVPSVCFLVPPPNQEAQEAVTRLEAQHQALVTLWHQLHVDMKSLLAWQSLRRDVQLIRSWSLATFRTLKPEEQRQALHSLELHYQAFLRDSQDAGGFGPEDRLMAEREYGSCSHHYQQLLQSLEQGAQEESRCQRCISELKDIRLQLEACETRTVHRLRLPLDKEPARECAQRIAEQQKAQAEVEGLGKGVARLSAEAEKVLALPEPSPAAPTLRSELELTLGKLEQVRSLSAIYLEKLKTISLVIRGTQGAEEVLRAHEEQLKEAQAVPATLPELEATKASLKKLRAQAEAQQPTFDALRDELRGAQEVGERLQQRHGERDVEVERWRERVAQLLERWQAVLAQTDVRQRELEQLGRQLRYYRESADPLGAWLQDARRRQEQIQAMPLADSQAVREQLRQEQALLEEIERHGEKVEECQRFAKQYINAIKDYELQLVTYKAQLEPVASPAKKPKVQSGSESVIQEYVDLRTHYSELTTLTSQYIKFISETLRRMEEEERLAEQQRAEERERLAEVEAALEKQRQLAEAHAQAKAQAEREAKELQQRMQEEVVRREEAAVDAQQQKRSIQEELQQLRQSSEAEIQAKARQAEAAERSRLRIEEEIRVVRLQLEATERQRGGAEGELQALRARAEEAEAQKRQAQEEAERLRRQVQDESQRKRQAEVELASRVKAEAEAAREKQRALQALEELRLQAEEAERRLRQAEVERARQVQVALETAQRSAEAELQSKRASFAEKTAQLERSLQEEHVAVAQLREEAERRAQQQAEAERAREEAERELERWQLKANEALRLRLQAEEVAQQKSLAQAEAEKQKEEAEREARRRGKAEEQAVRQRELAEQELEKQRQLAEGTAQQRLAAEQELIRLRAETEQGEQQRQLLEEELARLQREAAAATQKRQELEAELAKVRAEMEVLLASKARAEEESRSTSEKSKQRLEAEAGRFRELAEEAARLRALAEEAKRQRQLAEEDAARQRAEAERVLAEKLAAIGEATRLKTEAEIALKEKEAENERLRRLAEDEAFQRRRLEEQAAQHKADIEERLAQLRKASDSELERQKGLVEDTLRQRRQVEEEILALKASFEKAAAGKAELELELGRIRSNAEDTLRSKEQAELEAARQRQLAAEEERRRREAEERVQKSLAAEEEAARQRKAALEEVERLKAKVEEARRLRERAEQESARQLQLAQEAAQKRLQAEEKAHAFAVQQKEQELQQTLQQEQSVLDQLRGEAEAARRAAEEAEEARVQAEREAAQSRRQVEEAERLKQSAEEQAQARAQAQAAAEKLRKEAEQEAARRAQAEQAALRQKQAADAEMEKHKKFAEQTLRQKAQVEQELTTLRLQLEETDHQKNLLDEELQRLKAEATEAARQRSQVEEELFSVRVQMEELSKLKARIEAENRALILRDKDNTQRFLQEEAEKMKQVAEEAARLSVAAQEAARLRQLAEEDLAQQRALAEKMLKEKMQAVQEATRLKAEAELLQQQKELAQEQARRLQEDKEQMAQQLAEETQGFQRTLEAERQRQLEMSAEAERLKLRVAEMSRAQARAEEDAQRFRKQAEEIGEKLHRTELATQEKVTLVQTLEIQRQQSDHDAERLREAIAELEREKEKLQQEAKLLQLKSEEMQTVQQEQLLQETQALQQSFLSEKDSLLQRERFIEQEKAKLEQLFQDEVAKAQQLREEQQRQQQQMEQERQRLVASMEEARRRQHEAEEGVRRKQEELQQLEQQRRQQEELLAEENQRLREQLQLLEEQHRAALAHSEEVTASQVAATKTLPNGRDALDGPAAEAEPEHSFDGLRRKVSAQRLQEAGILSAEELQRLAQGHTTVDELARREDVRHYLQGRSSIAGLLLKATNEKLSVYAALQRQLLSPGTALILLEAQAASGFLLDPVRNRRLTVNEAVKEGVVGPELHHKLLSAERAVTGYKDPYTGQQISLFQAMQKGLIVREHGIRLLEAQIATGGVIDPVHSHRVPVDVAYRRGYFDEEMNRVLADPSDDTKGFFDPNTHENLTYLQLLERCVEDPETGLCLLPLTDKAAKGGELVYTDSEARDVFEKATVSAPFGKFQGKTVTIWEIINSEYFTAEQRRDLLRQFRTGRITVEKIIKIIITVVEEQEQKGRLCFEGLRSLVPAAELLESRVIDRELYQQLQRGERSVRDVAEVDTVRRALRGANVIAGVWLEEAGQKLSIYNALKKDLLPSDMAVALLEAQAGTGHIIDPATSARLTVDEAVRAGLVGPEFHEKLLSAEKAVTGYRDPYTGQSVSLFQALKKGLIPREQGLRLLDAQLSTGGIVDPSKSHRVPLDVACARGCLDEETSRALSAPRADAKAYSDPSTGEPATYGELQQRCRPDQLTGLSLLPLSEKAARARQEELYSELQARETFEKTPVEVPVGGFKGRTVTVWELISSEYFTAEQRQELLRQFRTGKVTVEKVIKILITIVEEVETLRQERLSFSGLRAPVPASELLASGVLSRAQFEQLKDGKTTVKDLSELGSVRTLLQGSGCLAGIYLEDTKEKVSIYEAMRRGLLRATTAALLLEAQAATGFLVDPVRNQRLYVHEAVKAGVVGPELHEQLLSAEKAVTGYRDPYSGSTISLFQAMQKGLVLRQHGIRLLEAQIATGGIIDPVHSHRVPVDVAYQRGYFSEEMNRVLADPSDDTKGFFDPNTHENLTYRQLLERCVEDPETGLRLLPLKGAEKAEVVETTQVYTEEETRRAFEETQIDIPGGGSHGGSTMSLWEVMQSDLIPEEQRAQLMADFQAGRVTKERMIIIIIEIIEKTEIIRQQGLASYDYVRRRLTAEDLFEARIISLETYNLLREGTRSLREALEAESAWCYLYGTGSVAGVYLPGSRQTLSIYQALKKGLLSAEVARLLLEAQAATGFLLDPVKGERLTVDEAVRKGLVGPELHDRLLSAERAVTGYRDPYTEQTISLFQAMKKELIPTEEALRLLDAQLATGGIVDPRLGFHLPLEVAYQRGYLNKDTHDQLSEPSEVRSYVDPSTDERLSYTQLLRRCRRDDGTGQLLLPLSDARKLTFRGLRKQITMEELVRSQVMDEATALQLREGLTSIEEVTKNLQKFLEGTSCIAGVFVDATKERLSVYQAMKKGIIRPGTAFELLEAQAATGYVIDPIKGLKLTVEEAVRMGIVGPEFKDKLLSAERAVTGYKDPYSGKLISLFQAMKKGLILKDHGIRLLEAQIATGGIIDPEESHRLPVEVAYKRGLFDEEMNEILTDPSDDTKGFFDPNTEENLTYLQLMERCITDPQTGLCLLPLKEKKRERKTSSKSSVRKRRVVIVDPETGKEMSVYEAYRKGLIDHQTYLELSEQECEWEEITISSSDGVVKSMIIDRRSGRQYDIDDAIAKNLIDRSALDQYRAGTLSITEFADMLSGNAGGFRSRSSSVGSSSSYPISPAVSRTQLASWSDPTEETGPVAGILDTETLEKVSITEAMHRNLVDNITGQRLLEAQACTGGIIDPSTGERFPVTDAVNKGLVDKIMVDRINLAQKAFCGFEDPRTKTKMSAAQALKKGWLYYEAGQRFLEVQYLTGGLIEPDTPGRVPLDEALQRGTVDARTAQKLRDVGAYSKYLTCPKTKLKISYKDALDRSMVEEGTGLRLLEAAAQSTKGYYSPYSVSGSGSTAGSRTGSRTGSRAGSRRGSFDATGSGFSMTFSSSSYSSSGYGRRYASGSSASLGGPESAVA

## COCCNCC(=O)N(CCCCN)CC(=O)N(CC(=O)N(CC(=O)N(CCCCN)CC(=O)NC(CCCCN)C(=O)N[C@H](CCCCN)C(=O)NC(CCSC)C(N)=O)C(C)c1ccccc1)Cc1ccc2c(c1)OCO2 (stereo partly drawn) [PCS2] (H-[Nme][Nlys][Gly(N-piperonyl)][X1][Nlys][ξK][dK][ξM]-NH2)
H358 cells [1]; bound vs unbound fractions
  binding of PCS2 beads to CSCs from H358 vs normal MSCs: bound significantly higher on CSCs from H358 than normal MSCs
H358 cells [1]; coated magnetic beads
  cells isolated (pull-down) from H358: 28-38%
plectin; H358, H1693, H1975 and H1993 cells
  bound cells after plectin siRNA knockdown vs control siRNA: dramatic decrease
plectin; all cell lines tested
  cells bound to PCS2-magnetic-beads in the presence of plectin antibody: fewer cells bound
H358 cells [2]
  colonies formed: Significantly fewer colonies formed
[3]; H358, HCC4017, H460, H1299, H2073, H1693, H1993, H1975, RT-QPCR
  Plectin expression in PCS2-bound cells vs unbound cells: significantly higher
[3]; HCC4017, H358, H366, H460, vs unsorted or unbound fractions
  relative expression of SOX2 in PCS2-bead fractions: increased expression of SOX2
[3]; [4]
  CD44 expression in PCS2-coated magnetic-bead bound fractions: high
  SOX2 expression in PCS2-coated magnetic-bead bound fractions: high
